ChEMBL document CHEMBL1201862, “PubChem BioAssay data set” (2004)
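96-well plates; 48 h exposure; 5 concentrations. Endpoints by linear interpolation between flanking doses. Not reached: highest tested concentration assigned. The concentration for 50% growth inhibition is given as GI50.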 Activity calls are given as the source filed them. No stated cut-off is given here; in the data, active = GI50 up to about 1.1 µM and inactive = higher.

Columns and labels:
Test in all cases: growth of human tumour cells (NCI), 48 h
[1] = test system: A549
[2] = test system: SK-OV-3
[3] = test system: U-251
[4] = test system: NCI/ADR-RES
[5] = test system: OVCAR-8
[6] = test system: SK-MEL-5
[7] = test system: OVCAR-4
[8] = test system: M14
[9] = test system: SF-268
[10] = test system: MDA-MB-435
[11] = test system: SNB-19
[12] = test system: UO-31
[13] = test system: RXF 393
[14] = test system: NCI-H226
[15] = test system: OVCAR-5
[16] = test system: CAKI-1
[17] = test system: MDA-N
[18] = test system: IGROV-1
[19] = test system: OVCAR-3
[20] = test system: HCT-116
[21] = test system: HT-29
[22] = test system: A498
[23] = test system: Hs-578T
[24] = test system: EKVX
[25] = test system: BT-549
[26] = test system: SK-MEL-28
[27] = test system: COLO 205
[28] = test system: LOX IMVI
[29] = test system: HOP-62
[30] = test system: KM12
[31] = test system: SN12C
[32] = test system: TK-10
[33] = test system: NCI-H460
[34] = test system: 786-0
[35] = test system: HCT-15
[36] = test system: RPMI-8226
[37] = test system: CCRF-CEM
[38] = test system: PC-3
[39] = test system: MOLT-4
[40] = test system: DU-145
[41] = test system: T47D
[42] = test system: UACC-62
[43] = test system: SR
[44] = test system: HOP-92
[45] = test system: NCI-H23
[46] = test system: SW-620
[47] = test system: ACHN
[48] = test system: UACC-257
[49] = test system: SF-295
[50] = test system: K562
[51] = test system: MDA-MB-231
[52] = test system: HCC 2998
[53] = test system: Malme-3M
[54] = test system: SK-MEL-2
[55] = test system: NCI-H522
[56] = test system: MCF7
[57] = test system: SNB-75
[58] = test system: SF-539
[59] = test system: HL-60

SMILES: CCN(CC)CCNc1n[n+]([O-])c2cc([N+](=O)[O-])ccc2[n+]1[O-]
- GI50 [1]: 0.678 µM (active)
- GI50 [2]: 0.729 µM (active)
- GI50 [3]: 0.701 µM (active)
- GI50 [4]: 1.11 µM (active)
- GI50 [5]: 0.391 µM (active)
- GI50 [6]: 0.362 µM (active)
- GI50 [7]: 0.828 µM (active)
- GI50 [8]: 0.423 µM (active)
- GI50 [9]: 0.661 µM (active)
- GI50 [10]: 0.826 µM (active)
- GI50 [11]: 1.28 µM (inactive)
- GI50 [12]: 1.49 µM (inactive)
- GI50 [13]: 1.47 µM (inactive)
- GI50 [14]: 1.87 µM (inactive)
- GI50 [15]: 1.47 µM (inactive)
- GI50 [16]: 0.204 µM (active)
- GI50 [17]: 0.562 µM (active)
- GI50 [18]: 0.132 µM (active)
- GI50 [19]: 0.849 µM (active)
- GI50 [20]: 0.318 µM (active)
- GI50 [21]: 0.252 µM (active)
- GI50 [22]: 1.08 µM (active)
- GI50 [23]: 3.11 µM (inactive)
- GI50 [24]: 1.9 µM (inactive)
- GI50 [25]: 1.81 µM (inactive)
- GI50 [26]: 5.35 µM (inactive)
- GI50 [27]: 0.348 µM (active)
- GI50 [28]: 0.467 µM (active)
- GI50 [29]: 0.385 µM (active)
- GI50 [30]: 0.543 µM (active)

SMILES: C=C(CCC/C(C)=C/C=C/[C@@H](C)CCCc1ccoc1)C[C@@H]1OC(=O)[C@H](C)[C@@H]1O
- GI50 [31]: 9.68 µM (inactive)
- GI50 [1]: 7.29 µM (inactive)
- GI50 [2]: 7.46 µM (inactive)
- GI50 [32]: 13.1 µM (inactive)
- GI50 [33]: 11 µM (inactive)
- GI50 [34]: 10.8 µM (inactive)
- GI50 [3]: 11 µM (inactive)
- GI50 [35]: 10.1 µM
- GI50 [36]: 12.8 µM (inactive)
- GI50 [37]: 9.89 µM (inactive)
- GI50 [4]: 9.04 µM (inactive)
- GI50 [38]: 7.31 µM (inactive)
- GI50 [39]: 16.1 µM (inactive)
- GI50 [5]: 10.1 µM (inactive)
- GI50 [40]: 10.6 µM (inactive)
- GI50 [41]: 8.36 µM (inactive)
- GI50 [6]: 6.3 µM (inactive)
- GI50 [7]: 10.2 µM (inactive)
- GI50 [8]: 9.33 µM (inactive)
- GI50 [42]: 5.27 µM (inactive)
- GI50 [9]: 9.31 µM (inactive)
- GI50 [43]: 10.7 µM (inactive)
- GI50 [44]: 10.6 µM (inactive)
- GI50 [10]: 7.96 µM (inactive)
- GI50 [11]: 9.25 µM (inactive)
- GI50 [12]: 7.85 µM (inactive)
- GI50 [13]: 10.3 µM (inactive)
- GI50 [45]: 8.09 µM (inactive)
- GI50 [46]: 11.4 µM (inactive)
- GI50 [47]: 7.59 µM (inactive)
- GI50 [14]: 6.43 µM (inactive)
- GI50 [15]: 18.4 µM (inactive)
- GI50 [16]: 9.91 µM (inactive)
- GI50 [48]: 6.35 µM (inactive)
- GI50 [17]: 9.73 µM (inactive)
- GI50 [18]: 10.7 µM (inactive)
- GI50 [19]: 7.13 µM (inactive)
- GI50 [49]: 7.6 µM (inactive)
- GI50 [20]: 13.3 µM (inactive)
- GI50 [21]: > 50 µM (inactive)
- GI50 [22]: 7.26 µM (inactive)
- GI50 [50]: 21.5 µM (inactive)
- GI50 [51]: 7.48 µM (inactive)
- GI50 [52]: 11.6 µM (inactive)
- GI50 [53]: 8.91 µM (inactive)
- GI50 [24]: 9.2 µM (inactive)
- GI50 [25]: 8.95 µM (inactive)
- GI50 [26]: 10.1 µM (inactive)
- GI50 [54]: 8.18 µM (inactive)
- GI50 [27]: 8.43 µM (inactive)
- GI50 [55]: 7.08 µM (inactive)
- GI50 [28]: 9.71 µM (inactive)
- GI50 [29]: 8.69 µM (inactive)
- GI50 [56]: 7.89 µM (inactive)
- GI50 [57]: 9.77 µM (inactive)
- GI50 [30]: 7.24 µM (inactive)
- GI50 [58]: 8.17 µM (inactive)

SMILES: O=C(O)C(C1NCCS1)N1Cc2ccccc2C1 (stereo unspecified)
- GI50 [31]: > 100 µM (inactive)
- GI50 [1]: > 100 µM (inactive)
- GI50 [2]: > 100 µM (inactive)
- GI50 [32]: > 100 µM (inactive)
- GI50 [33]: > 100 µM (inactive)
- GI50 [34]: > 100 µM (inactive)
- GI50 [3]: > 100 µM (inactive)
- GI50 [35]: > 100 µM
- GI50 [36]: > 100 µM (inactive)
- GI50 [37]: > 100 µM (inactive)
- GI50 [4]: > 100 µM (inactive)
- GI50 [38]: > 100 µM (inactive)
- GI50 [39]: > 100 µM (inactive)
- GI50 [5]: > 100 µM (inactive)
- GI50 [40]: > 100 µM (inactive)
- GI50 [41]: > 100 µM (inactive)
- GI50 [6]: > 100 µM (inactive)
- GI50 [7]: > 100 µM (inactive)
- GI50 [8]: > 100 µM (inactive)
- GI50 [42]: > 100 µM (inactive)
- GI50 [43]: > 100 µM (inactive)
- GI50 [44]: > 100 µM (inactive)
- GI50 [10]: > 100 µM (inactive)
- GI50 [11]: > 100 µM (inactive)
- GI50 [12]: > 100 µM (inactive)
- GI50 [13]: > 100 µM (inactive)
- GI50 [45]: > 100 µM (inactive)
- GI50 [46]: > 100 µM (inactive)
- GI50 [47]: > 100 µM (inactive)
- GI50 [14]: > 100 µM (inactive)
- GI50 [15]: > 100 µM (inactive)
- GI50 [16]: > 100 µM (inactive)
- GI50 [48]: > 100 µM (inactive)
- GI50 [17]: > 100 µM (inactive)
- GI50 [18]: > 100 µM (inactive)
- GI50 [19]: > 100 µM (inactive)
- GI50 [49]: > 100 µM (inactive)
- GI50 [20]: > 100 µM (inactive)
- GI50 [21]: > 100 µM (inactive)
- GI50 [22]: > 100 µM (inactive)
- GI50 [50]: > 100 µM (inactive)
- GI50 [51]: > 100 µM (inactive)
- GI50 [53]: > 100 µM (inactive)
- GI50 [24]: > 100 µM (inactive)
- GI50 [25]: > 100 µM (inactive)
- GI50 [26]: > 100 µM (inactive)
- GI50 [54]: > 100 µM (inactive)
- GI50 [27]: > 100 µM (inactive)
- GI50 [28]: > 100 µM (inactive)
- GI50 [29]: > 100 µM (inactive)
- GI50 [56]: > 100 µM (inactive)
- GI50 [57]: > 100 µM (inactive)
- GI50 [30]: > 100 µM (inactive)
- GI50 [58]: > 100 µM (inactive)
- GI50 [59]: > 100 µM (inactive)

SMILES: CCCCCCCc1cscc1-c1cscc1Br
- GI50 [31]: 69.5 µM (inactive)
- GI50 [1]: 27.2 µM (inactive)
- GI50 [2]: 45.9 µM (inactive)
- GI50 [32]: > 100 µM (inactive)
- GI50 [33]: 39.4 µM (inactive)
- GI50 [34]: 57 µM (inactive)
- GI50 [3]: 39.3 µM (inactive)
- GI50 [35]: 36.1 µM
- GI50 [36]: 18.5 µM (inactive)
- GI50 [37]: 18.2 µM (inactive)
- GI50 [4]: 90.8 µM (inactive)
- GI50 [38]: 33 µM (inactive)
- GI50 [39]: 20.2 µM (inactive)
- GI50 [5]: 52 µM (inactive)
- GI50 [40]: 48.4 µM (inactive)
- GI50 [41]: 24.2 µM (inactive)
- GI50 [6]: 28.4 µM (inactive)
- GI50 [7]: 33.7 µM (inactive)
- GI50 [8]: 31.9 µM (inactive)
- GI50 [42]: 70 µM (inactive)
- GI50 [9]: > 100 µM (inactive)
- GI50 [43]: 19.6 µM (inactive)
- GI50 [10]: 35.9 µM (inactive)
- GI50 [11]: 70.1 µM (inactive)
- GI50 [12]: 35.6 µM (inactive)
- GI50 [13]: 27 µM (inactive)
- GI50 [45]: 40.8 µM (inactive)
- GI50 [46]: 42.8 µM (inactive)
- GI50 [47]: 33.5 µM (inactive)
- GI50 [14]: 65.2 µM (inactive)
- GI50 [15]: 39.3 µM (inactive)
- GI50 [16]: 22.5 µM (inactive)
- GI50 [48]: 31.6 µM (inactive)
- GI50 [17]: 35.8 µM (inactive)
- GI50 [18]: 59.7 µM (inactive)
- GI50 [49]: 26 µM (inactive)
- GI50 [20]: 32.7 µM (inactive)
- GI50 [22]: 86.7 µM (inactive)
- GI50 [50]: 53.1 µM (inactive)
- GI50 [51]: 52.2 µM (inactive)
- GI50 [52]: 27.7 µM (inactive)
- GI50 [53]: 42.1 µM (inactive)
- GI50 [24]: 56.1 µM (inactive)
- GI50 [25]: > 100 µM (inactive)
- GI50 [26]: 88.9 µM (inactive)
- GI50 [54]: 16.6 µM (inactive)
- GI50 [27]: 18 µM (inactive)
- GI50 [55]: 21.4 µM (inactive)
- GI50 [28]: 20.1 µM (inactive)
- GI50 [29]: 57.4 µM (inactive)
- GI50 [56]: 34.8 µM (inactive)
- GI50 [57]: 25.8 µM (inactive)
- GI50 [30]: 27.2 µM (inactive)
- GI50 [58]: > 100 µM (inactive)
